Source: US7781565B2 (priority 2006, dated 2010)
“Also recorded” adds a separate entry of the source.

These substances were tested on NCI-60 cell lines.
Format: cell-based, human

Substance | Cell Line (NCI-60 cell line the peptide and its motif are associated with) | Cell Line with which the peptide (and its tripeptide motif) is associated | Cell Line the peptide is associated with (peptide recovered from phage library selection on this NCI-60 cell line) | Cell Line (NCI-60 cell line the peptide is associated with)
GRLWYVA | DU-145 Prostate | – | – | –
ASGTLLR | SK-MEL-28 Melanoma | – | – | –
LEVGRLF | SK-OV-3-3 Ovarian | – | – | –
RVGTLRV | SK-OV-3-3 Ovarian | – | – | –
WFSWLVS | – | H460-Lung | – | –
IYPGAVL | OVCAR-5 Ovarian | – | – | –
LRVGIGY | – | H23-Lung | – | –
LVRVSGR | – | HL-60-Leukemia | – | –
GLRTRQV | – | Hop-92-Lung | – | –
ERARGYP | – | SR Leukemia | – | –
LLSVTSX | – | – | SN12C Renal | –
RGGRSPS | – | – | – | HT-29 Colon
RRVSLVA | – | CCRF-CEM Leukemia | – | –
WFGAVGL | – | Molt-4-Leukemia | – | –
DVRAVSS | – | EKVX-Lung | – | –
SRLSYWQ | – | – | – | LOX-IMVI Melanoma
EVLVSGD | – | Molt-4-Leukemia | – | –
AKLGSVY | – | H226-Lung | – | –
SAGLLPS | OVCAR-5 Ovarian | – | – | –
RIGAVWY | – | – | – | HT-29 Colon
GRGDRGV | SK-MEL-28 Melanoma | – | – | –
GRLRASL | – | – | – | SF-295 CNS

Substance | Cell Line (NCI-60 cell line the peptide and its motif are associated with) | Cell Line with which the peptide (and its tripeptide motif) is associated | Cell Line the peptide is associated with (peptide recovered from phage library selection on this NCI-60 cell line) | Cell Line (NCI-60 cell line the peptide is associated with)
LRASLLW | – | – | – | HCC-2998-Colon
RGSPAAA | – | – | MDA-MB-435-Breast | –
RGGSDEA | – | – | BT-549 Breast | –
LGYYGAV | – | – | T-47D Breast | –
GLVRRVV | – | – | CAIK-1 Renal | –
HVSGGSG | – | Hop-92-Lung | – | –
SGRLWVG | – | – | RXF393 Renal | –
TSRGLRL | UACC 257 Melanoma | – | – | –
AGRRLRD | – | – | NCI/ADR-RES Breast | –
WSAGGPH | – | SR Leukemia | – | –
IGAVSGW | – | – | – | SNB-75 CNS
GSGSVRT | – | – | BT-549 Breast | –
LVRDGVL | – | – | – | MALME-3M Melanoma
LSGSVLQ | – | – | – | HCT-116 Colon
GGFLLVS | SK-OV-3-3 Ovarian | – | – | –
NWDARGR | M14 Melanoma | – | – | –
PLAVSMV | – | SR Leukemia | – | –
MRPGLRS | – | – | MDA-MB-231 Breast | –
WRVRSSG | – | – | – | HCT-15 Colon
GVSGLSR | DU-145 Prostate | – | – | –
DGGLNDC | OVCAR-5 Ovarian | – | – | –
RGSPLTK | UACC 257 Melanoma | – | – | –

Substance | Cell Line (NCI-60 cell line the peptide and its motif are associated with) | Cell Line with which the peptide (and its tripeptide motif) is associated | Cell Line the peptide is associated with (peptide recovered from phage library selection on this NCI-60 cell line) | Cell Line (NCI-60 cell line the peptide is associated with)
VSRIGVR | – | – | – | LOX-IMVI Melanoma
IRVSAVV | – | – | HS 578 T Breast | –
AAVGGRV | M14 Melanoma | – | – | –
WGATAGG | – | Hop-62-Lung | – | –
GEHLGGS | – | SR Leukemia | – | –
ADLGAGW | OVCAR-4 Ovarian | – | – | –
SVDRGVI | – | – | – | LOX-IMVI Melanoma
SRYTLRS | IGROV1 Ovarian | – | – | –
HAAHGLV | – | Hop-92-Lung | – | –
SGGSVGF | – | – | MDA-MB-231 Breast | –
LSMLRSA | – | H322-Lung | – | –
GGGRRAL | PC3 Prostate | – | – | –
LRGVYVA | – | – | NCI/ADR-RES Breast | –
GVLLWRP | UACC62 Melanoma | – | – | –
GRVHLMP | – | Hop-92-Lung | – | –
LGLVFTR | – | – | T-47D Breast | –
EHPAGGM | – | A549-Lung | – | –
RIFHGAV | – | – | – | SNB-19 CNS; also recorded: SF-539 CNS
SLRSGIV | – | EKVX-Lung | – | –
IHRGVWG | 786-0 Renal | – | – | –
DVETRGS | – | CCRF-CEM Leukemia | – | –
AGGWRGR | – | – | – | SF-268 CNS

Substance | Cell Line (NCI-60 cell line the peptide and its motif are associated with) | Cell Line with which the peptide (and its tripeptide motif) is associated | Cell Line the peptide is associated with (peptide recovered from phage library selection on this NCI-60 cell line) | Cell Line (NCI-60 cell line the peptide is associated with)
RLLSAFG | – | – | – | HCT-15 Colon
LRVYGEG | – | – | – | SNB-75 CNS
ARGIVRV | – | – | – | SW620-Colon
RRLSYFH | – | – | – | HT-29 Colon
DRYMLRS | – | H460-Lung | – | –
RVPTGVR | – | – | SN12C Renal | –
ARVGVSP | – | H322-Lung | – | –
PLRVLKR | – | – | – | SF-295 CNS
ASLHHRR | – | – | – | SW620-Colon
NMGRGSL | – | – | ACHN Renal | –
DYVGAGT | DU-145 Prostate | – | – | –
LGGRQES | – | – | ACHN Renal | –
FGGSGVL | – | H460-Lung | – | –
RVRGVLD | – | – | BT-549 Breast | –
WAGLSRP | – | – | SN12C Renal | –
ERASQTA | – | K-562-Leukemia | – | –
RAGSRVQ | – | – | – | SF-295 CNS
GGLRVGG | PC3 Prostate | – | – | –
WGRGSVA | – | Molt-4-Leukemia | – | –
NRSSAKF | – | K-562-Leukemia | – | –
RVGAGAF | SK-OV-3-3 Ovarian | – | – | –
MGVLTAE | – | – | – | SNB-19 CNS; also recorded: SF-539 CNS

Substance | Cell Line (NCI-60 cell line the peptide and its motif are associated with) | Cell Line with which the peptide (and its tripeptide motif) is associated | Cell Line the peptide is associated with (peptide recovered from phage library selection on this NCI-60 cell line) | Cell Line (NCI-60 cell line the peptide is associated with)
LQRGVAR | OVCAR-5 Ovarian | – | – | –
GGSVEGQ | – | – | ACHN Renal | –
SAAGRTF | SK-MEL-2 Melanoma | – | – | –
RLRVSVR | – | – | CAIK-1 Renal | –
TEGSVTV | – | HL-60-Leukemia | – | –
LSERRGV | – | – | – | SF-295 CNS
RFSSRAV | IGROV1 Ovarian | – | – | –
SGVGGRY | UACC 257 Melanoma | – | – | –
GFGRLLW | – | – | A498 Renal | –
TGVRNSP | – | – | UO31 Renal | –
AVRGVAR | – | HL-60-Leukemia | – | –
STEGGGL | – | Molt-4-Leukemia | – | –
VKGSSMR | – | – | A498 Renal | –
LRSDPRS | – | – | – | HT-29 Colon
LKAGLRS | OVCAR-5 Ovarian | – | – | –
GVRGGGD | – | – | CAIK-1 Renal | –
NMAGGQE | IGROV1 Ovarian | – | – | –
LGGRLSL | – | – | MDA-MB-231 Breast | –
RRLSYHS | M14 Melanoma; also recorded: OVCAR-3 Ovarian | – | – | –
YSQRSSL | – | Hop-62-Lung | – | –
PVRGSVD | – | HL-60-Leukemia | – | –
GRVKPGA | DU-145 Prostate | – | – | –

Substance | Cell Line (NCI-60 cell line the peptide and its motif are associated with) | Cell Line with which the peptide (and its tripeptide motif) is associated | Cell Line the peptide is associated with (peptide recovered from phage library selection on this NCI-60 cell line) | Cell Line (NCI-60 cell line the peptide is associated with)
GRLAAGS | – | – | MCF-7 Breast | –
RAGGGAP | – | – | ACHN Renal | –
DEGLRSR | – | – | – | HCT-116 Colon
REGGSDT | – | – | NCI/ADR-RES Breast | –
SRLSYRT | – | – | TK-10 Renal | –
SRYWLRS | – | H522-Lung | – | –
VWGVGGS | – | K-562-Leukemia | – | –
RKGSGTA | – | – | BT-549 Breast | –
PGFMAGS | UACC62 Melanoma | – | – | –
LVGSSRV | SK-OV-3-3 Ovarian | – | – | –
ISPRSSG | – | – | – | HCT-15 Colon
RVDRGSL | – | – | CAIK-1 Renal | –
LLRPAHG | SK-MEL-2 Melanoma | – | – | –
GVSTGFT | – | K-562-Leukemia | – | –
GAGRTVM | – | SR Leukemia | – | –
SRYGLRR | – | RPMI-8226-Leukemia | – | –
LIGGRNA | – | – | – | HCT-116 Colon
RGSRLPA | – | EKVX-Lung | – | –
AGRPDGV | DU-145 Prostate | – | – | –
VLRSIPS | – | – | – | SF-295 CNS
LVYSGRL | – | – | – | SW620-Colon
LYLLSSA | SK-MEL-5 Melanoma | – | – | –
